Values of other authors as cited in patent publication US20220305055A1, “PHARMACEUTICAL CO[…]” (Zincum, Inc., priority 2016, published 2022).

Tested on: diabetic rats
Settings: zinc chloride administered

[Cl-].[Cl-].[Zn+2] [zinc chloride]
hyperglycemia: hyperglycemia improved
